Results published in patent publication US11180462B2, “Microbiocidal oxadiazole derivatives” (SYNGENTA PARTICIPATIONS AG, priority 2015, dated 2021).

Tests used:
[1] = tested on: Puccinia recondita f. Sp. Tritici; assay: Fungicidal activity against Puccinia recondita f. sp. tritici / wheat / leaf disc preventative (brown rust); assay type: in vivo; details: foliar, 200 ppm in the applied formulation, wheat leaf segments, preventative, compared to untreated control leaf disks, read-out: disease control
Outline: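 Compound application precedes infection: segments of wheat cv. Kanzler, sprayed at 200 ppm, are inoculated with a spore suspension after 1 day. Incubation is at 19° C. with 75% relative humidity and 12 h light/12 h darkness, and control versus untreated leaves is rated 7 to 9 days post-application.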

[2] = tested on: Puccinia recondita f. Sp. Tritici; assay: Fungicidal activity against Puccinia recondita f. sp. tritici / wheat / leaf disc curative (brown rust); assay type: in vivo; details: foliar, 24 h, 200 ppm in the applied formulation, wheat leaf segments, curative (applied 1 day after inoculation), compared to untreated control leaf disks, read-out: disease control
Outline: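 Wheat cv. Kanzler leaf segments on agar, inoculated with rust spore suspension, kept dark at 19° C and 75% RH; formulated compound sprayed 1 day post-inoculation. Incubated 19° C, 75% RH, 12 h light/12 h dark; percent disease control vs untreated scored 6 to 8 days after application.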

[3] = tested on: Phakopsora Pachyrhizi; assay: Fungicidal activity against Phakopsora pachyrhizi / soybean / leaf disc preventative (Asian soybean rust); assay type: in vivo; details: foliar, 200 ppm in the applied formulation, soybean leaf disks, compared to untreated control leaf disks, read-out: disease control
Outline: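 Preventative soybean leaf-disc test: discs on water agar sprayed with diluted formulated compound, inoculated one day later with spores on the lower surface. Held 24–36 h dark at 20°C, 75% rh, then 12 h light/day; percent disease control versus untreated discs scored 12–14 days after application.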

[4] = tested on: Glomerella lagenarium (Colletotrichum lagenarium); assay: Fungicidal activity against Glomerella lagenarium (Colletotrichum lagenarium) liquid culture / cucumber / preventative (anthracnose); assay type: cell-based; details: Colletotrichum orbiculare; 20 ppm in the applied formulation; liquid culture (PDB), growth inhibition measured photometrically after 3 to 4 days; compared to untreated control; read-out: disease control
Outline: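 Photometric read-out of fungal growth after 2–7 days, expressed as percent antifungal activity versus untreated check. Cryo-stored conidia in PDB; compound at 20 ppm; dark, 24 °C, 96% RH.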

CCON(Cc1ccc(-c2noc(C(F)(F)F)n2)cc1)C(=O)C1CCOC1 (centres unmarked) [Compound 1.617, N-ethoxy-N-[[4-[5-(trifluoromethyl)-1,2,4-oxadiazol-3-yl]phenyl]methyl]-tetrahydrofuran-3-carboxamide]
≥ 80%: pest or weed control at 200 ppm [1] | pest or weed control at 200 ppm [2] | pest or weed control at 200 ppm [3] | inhibition of growth at 20 ppm [4]

CCON(Cc1ccc(-c2noc(C(F)(F)F)n2)cc1)C(=O)C1CC1 [Compound 1.564, N-ethoxy-N-[[4-[5-(trifluoromethyl)-1,2,4-oxadiazol-3-yl]phenyl]methyl]-cyclopropane-carboxamide]
≥ 80%: pest or weed control at 200 ppm [1] | pest or weed control at 200 ppm [2] | pest or weed control at 200 ppm [3] | inhibition of growth at 20 ppm [4]

COCCC(=O)ON(Cc1ccc(-c2noc(C(F)(F)F)n2)cc1)C(=O)CCOC [Compound 1.759, [3-methoxy-propanoyl-[[4-[5-(trifluoromethyl)-1,2,4-oxadiazol-3-yl]phenyl]methyl]-amino] 3-methoxypropanoate]
≥ 80%: pest or weed control at 200 ppm [1] | pest or weed control at 200 ppm [2] | pest or weed control at 200 ppm [3] | inhibition of growth at 20 ppm [4]

CON(Cc1ccc(-c2noc(C(F)(F)F)n2)cc1)C(=O)Cc1ccc(Cl)cc1 [Compound 1.49, 2-(4-chlorophenyl)-N-methoxy-N-[[4-[5-(trifluoromethyl)-1,2,4-oxadiazol-3-yl]phenyl]methyl]-acetamide]
≥ 80%: pest or weed control at 200 ppm [1] | pest or weed control at 200 ppm [2] | pest or weed control at 200 ppm [3] | inhibition of growth at 20 ppm [4]

CON(Cc1ccc(-c2noc(C(F)(F)F)n2)cc1)C(=O)C1(C)COC1 [Compound 1.50, N-methoxy-3-methyl-N-[[4-[5-(trifluoromethyl)-1,2,4-oxadiazol-3-yl]phenyl]methyl]-oxetane-3-carboxamide]
≥ 80%: pest or weed control at 200 ppm [1] | pest or weed control at 200 ppm [2] | pest or weed control at 200 ppm [3] | inhibition of growth at 20 ppm [4]

CCC(C)N(Cc1ccc(-c2noc(C(F)(F)F)n2)cc1)C(=O)CCOC (centres unmarked) [Compound 1.379, 3-methoxy-N-sec-butyl-N-[[4-[5-(trifluoromethyl)-1,2,4-oxadiazol-3-yl]phenyl]methyl]-propanamide]
≥ 80%: pest or weed control at 200 ppm [1] | pest or weed control at 200 ppm [2] | pest or weed control at 200 ppm [3] | inhibition of growth at 20 ppm [4]

CCC(C)C(=O)N(Cc1ccc(-c2noc(C(F)(F)F)n2)cc1)OC (centres unmarked) [Compound 1.48, N-methoxy-2-methyl-N-[[4-[5-(trifluoromethyl)-1,2,4-oxadiazol-3-yl]phenyl]methyl]-butanamide]
≥ 80%: pest or weed control at 200 ppm [1] | pest or weed control at 200 ppm [2] | pest or weed control at 200 ppm [3] | inhibition of growth at 20 ppm [4]

N#CCC(=O)N(Cc1ccc(-c2noc(C(F)(F)F)n2)cc1)CC1CC1 [Compound 1.243, 2-cyano-N-(cyclopropylmethyl)-N-[[4-[5-(trifluoromethyl)-1,2,4-oxadiazol-3-yl]phenyl]methyl]-acetamide]
≥ 80%: pest or weed control at 200 ppm [1] | pest or weed control at 200 ppm [2] | pest or weed control at 200 ppm [3] | inhibition of growth at 20 ppm [4]

CCCC(=O)N(C)Cc1ccc(-c2noc(C(F)(F)F)n2)cc1 [Compound 1.524, N-methyl-N-[[4-[5-(trifluoromethyl)-1,2,4-oxadiazol-3-yl]phenyl]methyl]-butanamide]
≥ 80%: pest or weed control at 200 ppm [1] | pest or weed control at 200 ppm [2] | pest or weed control at 200 ppm [3] | inhibition of growth at 20 ppm [4]

CCN(Cc1ccc(-c2noc(C(F)(F)F)n2)cc1)C(=O)C1CCC1 [Compound 1.498, N-ethyl-N-[[4-[5-(trifluoromethyl)-1,2,4-oxadiazol-3-yl]phenyl]methyl]-cyclobulane-carboxamide]
≥ 80%: pest or weed control at 200 ppm [1] | pest or weed control at 200 ppm [2] | pest or weed control at 200 ppm [3] | inhibition of growth at 20 ppm [4]

C#CCN(Cc1ccc(-c2noc(C(F)(F)F)n2)cc1)C(=O)C(CC)COC (centres unmarked) [Compound 1.194, 2-(methoxymethyl)-N-prop-2-ynyl-N-[[4-[5-(trifluoromethyl)-1,2,4-oxadiazol-3-yl]phenyl]methyl]-butanamide]
≥ 80%: pest or weed control at 200 ppm [1] | pest or weed control at 200 ppm [2] | pest or weed control at 200 ppm [3] | inhibition of growth at 20 ppm [4]

CC(C)N(Cc1ccc(-c2noc(C(F)(F)F)n2)cc1)C(=O)C1CCCO1 (centres unmarked) [Compound 1.682, N-isopropyl-N-[[4-[5-(trifluoromethyl)-1,2,4-oxadiazol-3-yl]phenyl]methyl]-tetrahydrofuran-2-carboxamide]
≥ 80%: pest or weed control at 200 ppm [1] | pest or weed control at 200 ppm [2] | pest or weed control at 200 ppm [3] | inhibition of growth at 20 ppm [4]

CC(=O)ON(Cc1ccc(-c2noc(C(F)(F)F)n2)cc1)C(C)=O [Compound 1.776, (acetyl-[[4-[5-(trifluoromethyl)-1,2,4-oxadiazol-3-yl]phenyl]methyl]-amino] acetate]
≥ 80%: pest or weed control at 200 ppm [1] | pest or weed control at 200 ppm [2] | pest or weed control at 200 ppm [3] | inhibition of growth at 20 ppm [4]

CCCN(Cc1ccc(-c2noc(C(F)(F)F)n2)cc1)C(=O)C1CCC1 [Compound 1.656, N-propyl-N-[[4-[5-(trifluoromethyl)-1,2,4-oxadiazol-3-yl]phenyl]methyl]-cyclobutane-carboxamide]
≥ 80%: pest or weed control at 200 ppm [1] | pest or weed control at 200 ppm [2] | pest or weed control at 200 ppm [3] | inhibition of growth at 20 ppm [4]

CCC(C)N(Cc1ccc(-c2noc(C(F)(F)F)n2)cc1)C(=O)C(C)C (centres unmarked) [Compound 1.369, 2-methyl-N-sec-butyl-N-[[4-[5-(trifluoromethyl)-1,2,4-oxadiazol-3-yl]phenyl]methyl]-propanamide]
≥ 80%: pest or weed control at 200 ppm [1] | pest or weed control at 200 ppm [2] | pest or weed control at 200 ppm [3] | inhibition of growth at 20 ppm [4]

O=C(Cc1ccccc1)N(Cc1ccc(-c2noc(C(F)(F)F)n2)cc1)C1CC1 [Compound 1.121, N-cyclopropyl-2-phenyl-N-[[4-[5-(trifluoromethyl)-1,2,4-oxadiazol-3-yl]phenyl]methyl]-acetamide]
≥ 80%: pest or weed control at 200 ppm [1] | pest or weed control at 200 ppm [2] | pest or weed control at 200 ppm [3] | inhibition of growth at 20 ppm [4]

CCCN(Cc1ccc(-c2noc(C(F)(F)F)n2)cc1)C(=O)N(C)OC [Compound 3.30, 1-methoxy-1-methyl-3-propyl-3-[[4-[5-(trifluoromethyl)-1,2,4-oxadiazol-3-yl]phenyl]methyl]urea]
≥ 80%: pest or weed control at 200 ppm [1] | pest or weed control at 200 ppm [2] | pest or weed control at 200 ppm [3] | inhibition of growth at 20 ppm [4]

CC1CC1C(=O)N(Cc1ccc(-c2noc(C(F)(F)F)n2)cc1)C(C)C (centres unmarked) [Compound 1.676, N-isopropyl-2-methyl-N-[[4-[5-(trifluoromethyl)-1,2,4-oxadiazol-3-yl]phenyl]methyl]-cyclopropane-carboxamide]
≥ 80%: pest or weed control at 200 ppm [1] | pest or weed control at 200 ppm [2] | pest or weed control at 200 ppm [3] | inhibition of growth at 20 ppm [4]

CON(Cc1ccc(-c2noc(C(F)(F)F)n2)cc1)C(=O)C1CC1(C)C (centres unmarked) [Compound 1.47, N-methoxy-2,2-dimethyl-N-[[4-[5-(trifluoromethyl)-1,2,4-oxadiazol-3-yl]phenyl]methyl]-cyclopropane-carboxamide]
≥ 80%: pest or weed control at 200 ppm [1] | pest or weed control at 200 ppm [2] | pest or weed control at 200 ppm [3] | inhibition of growth at 20 ppm [4]

CON(Cc1ccc(-c2noc(C(F)(F)F)n2)cc1)C(=O)C1CC1 [Compound 1.2, N-methoxy-N-[[4-[5-(trifluoromethyl)-1,2,4-oxadiazol-3-yl]phenyl]methyl]-cyclopropane-carboxamide]
≥ 80%: pest or weed control at 200 ppm [1] | pest or weed control at 200 ppm [2] | pest or weed control at 200 ppm [3] | inhibition of growth at 20 ppm [4]
